In ChEMBL document CHEMBL1800055, “Orally active MMP-1 sparing α-tetrahydropyranyl and α-piperidinyl sulfone matrix metalloproteinase (MMP) inhibitors with efficacy in cancer, arthritis, and cardiovascular disease” (J Med Chem, 2010):

Columns and labels:
Stromelysin-1 = Stromelysin-1 (Homo sapiens, UniProt P08254)
Neutrophil collagenase = Neutrophil collagenase (Homo sapiens, UniProt P22894)
[1] = molecular target: Matrix metalloproteinase-14 (Homo sapiens, UniProt P50281)
Rattus norvegicus [2] = experiment: Plasma concentration in rat at 20 mg/kg, po; type: ADME, organism-based; parameters: dose 20 mg/kg, route oral; conditions: in vivo; note: time not given here
[3] = molecular target: 72 kDa type IV collagenase (Homo sapiens, UniProt P08253)
[4] = Cmax in rat at 20 mg/kg, po; type: ADME, organism-based; parameters: dose 20 mg/kg, route oral; conditions: in vivo
Interstitial collagenase = molecular target: T1, Interstitial collagenase (Homo sapiens, UniProt P03956); type: cell-based, HT-1080
T1 sequence (P03956 whole entry): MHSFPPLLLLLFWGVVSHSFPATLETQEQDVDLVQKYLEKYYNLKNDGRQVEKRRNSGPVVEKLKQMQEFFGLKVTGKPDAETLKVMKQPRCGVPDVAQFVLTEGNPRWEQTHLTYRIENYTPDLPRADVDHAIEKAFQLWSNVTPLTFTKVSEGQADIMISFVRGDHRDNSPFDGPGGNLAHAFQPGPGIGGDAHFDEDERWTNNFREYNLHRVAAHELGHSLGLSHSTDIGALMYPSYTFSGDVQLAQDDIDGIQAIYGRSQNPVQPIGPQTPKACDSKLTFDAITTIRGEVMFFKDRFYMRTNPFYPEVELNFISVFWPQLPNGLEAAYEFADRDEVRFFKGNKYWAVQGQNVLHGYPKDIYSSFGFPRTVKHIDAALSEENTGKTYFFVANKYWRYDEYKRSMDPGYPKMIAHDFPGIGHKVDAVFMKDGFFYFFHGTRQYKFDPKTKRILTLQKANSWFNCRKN

Collagenase 3 = Collagenase 3 (Homo sapiens, UniProt P45452)
[5] = Oral bioavailability in rat at 20 mg/kg; type: ADME, organism-based; conditions: in vivo
[6] = Half life in rat at 20 mg/kg, po; type: ADME, organism-based; parameters: dose 20 mg/kg, route oral; conditions: in vivo
[7] = Oral bioavailability in rat at 10 mg/mL; type: ADME, organism-based; conditions: in vivo
Rattus norvegicus [8] = experiment: Plasma concentration in rat at 10 mg/mL, iv and po; type: ADME, organism-based; conditions: in vivo; note: time not given here
[9] = Half life in rat at 10 mg/mL, iv and po; type: ADME, organism-based; conditions: in vivo
[10] = Cmax in rat at 10 mg/mL, iv and po; type: ADME, organism-based; conditions: in vivo
[11] = molecular target: Matrix metalloproteinase-9 (Homo sapiens, UniProt P14780)
Chain of Matrix metalloproteinase-9 (P14780 whole entry): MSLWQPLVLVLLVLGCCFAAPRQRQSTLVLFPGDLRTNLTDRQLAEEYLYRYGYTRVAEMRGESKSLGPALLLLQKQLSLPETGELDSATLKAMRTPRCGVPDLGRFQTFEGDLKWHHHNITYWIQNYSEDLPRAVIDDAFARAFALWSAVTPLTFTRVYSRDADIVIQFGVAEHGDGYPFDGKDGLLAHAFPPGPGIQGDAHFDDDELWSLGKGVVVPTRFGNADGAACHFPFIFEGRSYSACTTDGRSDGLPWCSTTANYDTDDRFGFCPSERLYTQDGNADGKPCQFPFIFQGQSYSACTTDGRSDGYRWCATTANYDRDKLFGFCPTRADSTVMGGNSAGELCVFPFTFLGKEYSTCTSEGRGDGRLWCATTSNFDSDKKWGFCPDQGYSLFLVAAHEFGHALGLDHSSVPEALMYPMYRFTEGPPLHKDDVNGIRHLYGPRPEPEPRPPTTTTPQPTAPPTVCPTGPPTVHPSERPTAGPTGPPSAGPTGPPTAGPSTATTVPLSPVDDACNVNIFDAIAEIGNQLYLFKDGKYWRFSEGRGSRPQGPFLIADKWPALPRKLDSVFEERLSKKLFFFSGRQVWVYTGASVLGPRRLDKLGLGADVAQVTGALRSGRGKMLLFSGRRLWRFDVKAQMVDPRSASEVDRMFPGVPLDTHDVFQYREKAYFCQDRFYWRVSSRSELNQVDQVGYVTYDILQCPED

Chain of 72 kDa type IV collagenase (P08253 whole entry): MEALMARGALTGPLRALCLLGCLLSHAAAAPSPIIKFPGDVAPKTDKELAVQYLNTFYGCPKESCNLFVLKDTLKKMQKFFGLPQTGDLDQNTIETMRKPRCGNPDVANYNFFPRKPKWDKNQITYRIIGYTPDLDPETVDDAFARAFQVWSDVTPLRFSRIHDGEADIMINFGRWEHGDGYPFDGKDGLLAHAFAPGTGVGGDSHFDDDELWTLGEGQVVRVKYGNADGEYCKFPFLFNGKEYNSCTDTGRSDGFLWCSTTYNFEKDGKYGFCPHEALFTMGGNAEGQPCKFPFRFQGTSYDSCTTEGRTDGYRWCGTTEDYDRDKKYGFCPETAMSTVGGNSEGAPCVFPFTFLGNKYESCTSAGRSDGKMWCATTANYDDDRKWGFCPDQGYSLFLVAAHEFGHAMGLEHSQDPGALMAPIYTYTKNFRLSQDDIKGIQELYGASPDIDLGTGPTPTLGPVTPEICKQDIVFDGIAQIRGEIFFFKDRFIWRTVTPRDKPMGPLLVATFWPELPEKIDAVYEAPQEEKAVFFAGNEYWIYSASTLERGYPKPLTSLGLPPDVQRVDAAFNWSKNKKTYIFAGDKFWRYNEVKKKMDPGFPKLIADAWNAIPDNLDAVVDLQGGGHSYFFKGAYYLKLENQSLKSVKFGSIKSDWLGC
Chain of Neutrophil collagenase (P22894 whole entry): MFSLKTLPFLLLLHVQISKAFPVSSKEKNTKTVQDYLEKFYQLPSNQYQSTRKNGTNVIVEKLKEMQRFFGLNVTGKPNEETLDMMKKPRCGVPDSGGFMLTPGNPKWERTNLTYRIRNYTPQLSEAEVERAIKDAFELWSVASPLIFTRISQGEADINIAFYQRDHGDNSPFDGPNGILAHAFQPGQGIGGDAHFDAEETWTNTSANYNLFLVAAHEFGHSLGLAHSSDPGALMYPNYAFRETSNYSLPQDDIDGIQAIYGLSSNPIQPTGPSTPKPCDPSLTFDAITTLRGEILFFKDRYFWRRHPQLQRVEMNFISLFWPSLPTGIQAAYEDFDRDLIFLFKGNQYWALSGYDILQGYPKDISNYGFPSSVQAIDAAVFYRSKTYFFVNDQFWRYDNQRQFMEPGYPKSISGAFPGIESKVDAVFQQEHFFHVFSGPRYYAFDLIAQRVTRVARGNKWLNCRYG
Chain of Stromelysin-1 (P08254 whole entry): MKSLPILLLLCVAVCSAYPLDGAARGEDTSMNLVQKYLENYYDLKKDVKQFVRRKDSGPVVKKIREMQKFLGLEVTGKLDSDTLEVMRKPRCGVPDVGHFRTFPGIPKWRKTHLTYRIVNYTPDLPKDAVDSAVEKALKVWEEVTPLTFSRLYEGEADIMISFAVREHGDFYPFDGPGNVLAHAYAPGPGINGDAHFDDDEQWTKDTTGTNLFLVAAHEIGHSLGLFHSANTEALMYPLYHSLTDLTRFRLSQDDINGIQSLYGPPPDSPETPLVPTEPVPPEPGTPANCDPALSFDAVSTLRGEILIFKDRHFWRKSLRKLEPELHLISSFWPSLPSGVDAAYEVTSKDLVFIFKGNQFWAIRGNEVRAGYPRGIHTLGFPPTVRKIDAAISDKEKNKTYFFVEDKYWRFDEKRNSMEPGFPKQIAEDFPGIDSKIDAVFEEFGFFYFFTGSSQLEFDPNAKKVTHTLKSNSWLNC

SMILES	IC50 (Stromelysin-1) [nM]	IC50 (Neutrophil collagenase) [nM]	IC50 [1] [nM]	Cp (Rattus norvegicus [2]) [ng/mL]	IC50 [3] [nM]	Cmax [4] [ng/mL]	IC50 (Interstitial collagenase) [nM]	IC50 (Collagenase 3) [nM]	bioavailability [5] [%]	half-life [6] [h]	bioavailability [7] [%]	Cp (Rattus norvegicus [8]) [ng/mL]	half-life [9] [h]	Cmax [10] [ng/mL]	IC50 [11] [nM]
O=C(NO)C1(S(=O)(=O)c2ccc(Oc3cccc(Cl)c3)cc2)CCOCC1	18.1	1.8	4.5												
O=C(NO)C1(S(=O)(=O)c2ccc(Oc3ccc4c(c3)OCCO4)cc2)CCN(C2CC2)CC1	21.5	1.5		15	0.2	9460	6000	0.5	16.6	3.3					
COCCN1CCC(C(=O)NO)(S(=O)(=O)c2ccc(Oc3ccc(OC(C)C)cc3)cc2)CC1					0.3		2000	0.5							
O=C(NO)C1(S(=O)(=O)c2ccc(Oc3ccccc3)cc2)CCOCC1	7	0.4			0.1			0.1			5.8	50	1.74	872	
CC(C)c1ccc(Oc2ccc(S(=O)(=O)C3(C(=O)NO)CCN(C(C)C)CC3)cc2)cc1	22.5	1.8			1		> 10000	2.7							
O=C(NO)C1(S(=O)(=O)c2ccc(Oc3ccc(SC(F)(F)F)cc3)cc2)CCOCC1		0.4			0.4		5000				49	3113	1.71	7270	
CC(C)Oc1ccc(Oc2ccc(S(=O)(=O)C3(C(=O)NO)CCOCC3)cc2)cc1			10.5		< 0.1		300	0.1							< 0.1
O=C(NO)C1(S(=O)(=O)c2ccc(Oc3ccncc3)cc2)CCOCC1					0.5						42.3	3	0.25	1610	
CSc1ccc(Oc2ccc(S(=O)(=O)C3(C(=O)NO)CCOCC3)cc2)cc1					< 0.1		2500	< 0.1							< 0.1
O=C(NO)C1(S(=O)(=O)c2ccc(Oc3ccc(C(F)(F)F)cc3)cc2)CCN(CCN2CCOCC2)CC1				73	0.3	147		0.35	2.6	0.94					
CCOCCN1CCC(C(=O)NO)(S(=O)(=O)c2ccc(Oc3ccc(OC(F)(F)F)cc3)cc2)CC1				3040		3130	5900		14.7	1.66					
O=C(NO)C1(S(=O)(=O)c2ccc(Oc3ccc(C(F)(F)F)cc3)cc2)CCNCC1	64.7	2	160	150	1.7	540	> 10000	1.2	12.4	1.88					
O=C(NO)C1(S(=O)(=O)c2ccc(Oc3ccc4c(c3)OCO4)cc2)CCN(C2CC2)CC1				206	0.5	13100	1000	0.3							< 0.1
O=C(NO)C1(S(=O)(=O)c2ccc(Oc3ccc(OC(F)(F)F)cc3)cc2)CCNCC1		0.7		223	< 0.1	630	10000	0.1	6.7	1.78					
CC(C)Oc1ccc(Oc2ccc(S(=O)(=O)C3(C(=O)NO)CCN(C4CC4)CC3)cc2)cc1					0.1		770	0.1							
CCOc1ccc(Oc2ccc(S(=O)(=O)C3(C(=O)NO)CCN(C4CC4)CC3)cc2)cc1					0.1		1000	0.25							0.2
C#CCN1CCC(C(=O)NO)(S(=O)(=O)c2ccc(Oc3ccc(OC)cc3)cc2)CC1	0.2	10		192					36.9	1.01					
CCN1CCC(C(=O)NO)(S(=O)(=O)c2ccc(Oc3ccc(C(F)(F)F)cc3)cc2)CC1	36.9	1.4			0.2		> 10000	0.6							

SMILES	IC50 (Stromelysin-1) [nM]	IC50 (Neutrophil collagenase) [nM]	IC50 [1] [nM]	Cp (Rattus norvegicus [2]) [ng/mL]	IC50 [3] [nM]	Cmax [4] [ng/mL]	IC50 (Interstitial collagenase) [nM]	IC50 (Collagenase 3) [nM]	bioavailability [5] [%]	half-life [6] [h]	bioavailability [7] [%]	Cp (Rattus norvegicus [8]) [ng/mL]	half-life [9] [h]	Cmax [10] [ng/mL]	IC50 [11] [nM]
CC(=O)N1CCC(C(=O)NO)(S(=O)(=O)c2ccc(Oc3ccc(OC(F)(F)F)cc3)cc2)CC1	18.1	1.6	9	72		159			4	1.06					
COCCN1CCC(C(=O)NO)(S(=O)(=O)c2ccc(Oc3ccc(C(C)C)cc3)cc2)CC1					0.1		10000	0.2							
CC(C)N1CCC(C(=O)NO)(S(=O)(=O)c2ccc(Oc3ccc(OC(F)(F)F)cc3)cc2)CC1		0.4			< 0.1		> 10000	< 0.1							< 0.1
C#CCN1CCC(C(=O)NO)(S(=O)(=O)c2ccc(Oc3ccc(C(C)C)cc3)cc2)CC1	32.6	1.6		21	0.1	5310	> 10000	0.25	23.8	0.73					
C#CCN1CCC(C(=O)NO)(S(=O)(=O)c2ccc(Oc3ccc4c(c3)OCO4)cc2)CC1	18.1	1.3		134			2000	0.6	30.1	0.843					
O=C(NO)C1(S(=O)(=O)c2ccc(Oc3ccc(Cl)cc3)cc2)CCOCC1	18.1	1.2									45.8	506	1.5	3120	
CN1CCC(C(=O)NO)(S(=O)(=O)c2ccc(Oc3ccc(OC(F)(F)F)cc3)cc2)CC1					< 0.1		> 10000	0.6							0.18
O=C(NO)C1(S(=O)(=O)c2ccc(Oc3ccc(OC(F)(F)F)cc3)cc2)CCOCC1	35	0.9	10.6								35.9	1172	1.87	8580	
O=C(NO)C1(S(=O)(=O)c2ccc(Oc3ccc(-c4ccccc4)cc3)cc2)CCOCC1	50	2.4			0.1		1400	0.25							
O=C(NO)C1(S(=O)(=O)c2ccc(Oc3ccc(Cl)c(Cl)c3)cc2)CCOCC1	35	4													
O=C(NO)C1(S(=O)(=O)c2ccc(Oc3ccc(O)cc3)cc2)CCOCC1			1.71		0.2		400	0.3							< 0.1
CC(C)N1CCC(C(=O)NO)(S(=O)(=O)c2ccc(Oc3ccc(C(F)(F)F)cc3)cc2)CC1	40	1.4		429	0.3	5120	> 10000	5.5	48.3	2.08					
O=C(NO)C1(S(=O)(=O)c2ccc(Oc3ccc(OC(F)(F)F)cc3)cc2)CCN(CCO)CC1				570	< 0.1	1380	4500	< 0.1	21.9	1.39					
COCCN1CCC(C(=O)NO)(S(=O)(=O)c2ccc(Oc3ccc4c(c3)OCO4)cc2)CC1	20	1.2	4		0.25		2400	0.2							
O=C(NO)C1(S(=O)(=O)c2ccc(Oc3cccc(C(F)(F)F)c3)cc2)CCOCC1	55.3	30			0.8		> 10000	0.8			18.3	257	1.12	1140	
COc1ccc(Oc2ccc(S(=O)(=O)C3(C(=O)NO)CCN(Cc4ccccn4)CC3)cc2)cc1	20.6	1.9		160	0.2		4500	0.3							
O=C(NO)C1(S(=O)(=O)c2ccc(Oc3ccc4c(c3)OCO4)cc2)CCNCC1	35	2.4		128		1550									
C#CCN1CCC(C(=O)NO)(S(=O)(=O)c2ccc(Oc3ccc(OC(F)(F)F)cc3)cc2)CC1					< 0.1		2600	0.2							< 0.1
